Laboratory results taken from ChEMBL document CHEMBL3112408, “1,2,3-triazole-, arylamino- and thio-substituted 1,4-naphthoquinones: potent antitumor activity, electrochemical aspects, and bioisosteric replacement of C-ring-modified lapachones” (Bioorg Med Chem, 2014).
pIC50: −log10 of the molar value.

System: not listed separately
Assay: Cytotoxicity against human Hs578T cells assessed as cell viability after 72 hrs by MTT assay
Type: functional, cell-based
Settings: Hs-578T

Structure (SMILES)	pIC50
CC1(C)CC(Nc2ccc(Br)cc2)C2=C(O1)C(=O)c1ccccc1C2=O (stereo not given)	5.19
CC1(C)CC(Nc2ccc(I)cc2)C2=C(O1)C(=O)c1ccccc1C2=O (stereo not given)	5.04
CC1(C)CC(Nc2ccc(Cl)cc2)C2=C(O1)C(=O)c1ccccc1C2=O (stereo not given)	6.22
COc1ccc(NC2CC(C)(C)OC3=C2C(=O)c2ccccc2C3=O)cc1 (stereo not given)	6.16
COc1cccc2c1C(=O)c1c(O)c3c(c(O)c1C2=O)C[C@@](O)(C(=O)CO)C[C@@H]3O[C@H]1C[C@H](N)[C@H](O)[C@H](C)O1 [DOXORUBICIN]	6.43

System: MX1
Assay: Cytotoxicity against human MX1 cells assessed as cell viability after 72 hrs by MTT assay
Type: functional, cell-based
Settings: MX1, 72 h

Structure (SMILES)	pIC50
CC1(C)CC(Nc2ccc(Br)cc2)C2=C(O1)C(=O)c1ccccc1C2=O (stereo not given)	5.20
CC1(C)CC(Nc2ccc(I)cc2)C2=C(O1)C(=O)c1ccccc1C2=O (stereo not given)	4.97
CC1(C)CC(Nc2ccc(Cl)cc2)C2=C(O1)C(=O)c1ccccc1C2=O (stereo not given)	6.12
COc1ccc(NC2CC(C)(C)OC3=C2C(=O)c2ccccc2C3=O)cc1 (stereo not given)	6.28
COc1cccc2c1C(=O)c1c(O)c3c(c(O)c1C2=O)C[C@@](O)(C(=O)CO)C[C@@H]3O[C@H]1C[C@H](N)[C@H](O)[C@H](C)O1 [DOXORUBICIN]	6.30

System: MDA-MB-435
Assay: Cytotoxicity against human MDA-MB-435 cells assessed as cell viability after 72 hrs by MTT assay
Type: functional, cell-based
Settings: MDA-MB-435, 72 h

Structure (SMILES)	pIC50
CC1(C)CC(Nc2cccc([N+](=O)[O-])c2)C2=C(O1)C(=O)c1ccccc1C2=O (stereo not given)	5.84
CC1(C)CC(Nc2ccc(Br)cc2)C2=C(O1)C(=O)c1ccccc1C2=O (stereo not given)	5.28
CC1(C)CC(Nc2ccc(I)cc2)C2=C(O1)C(=O)c1ccccc1C2=O (stereo not given)	5.05
CC1(C)CC(Nc2ccc(Cl)cc2)C2=C(O1)C(=O)c1ccccc1C2=O (stereo not given)	6.00
COc1ccc(NC2CC(C)(C)OC3=C2C(=O)c2ccccc2C3=O)cc1 (stereo not given)	6.24

System: HL-60
Assay: Cytotoxicity against human HL60 cells assessed as cell viability after 72 hrs by MTT assay
Type: functional, cell-based
Settings: HL-60, 72 h

Structure (SMILES)	pIC50
CC1(C)CC(Nc2cccc([N+](=O)[O-])c2)C2=C(O1)C(=O)c1ccccc1C2=O (stereo not given)	5.82
CC1(C)CC(Nc2ccc(Br)cc2)C2=C(O1)C(=O)c1ccccc1C2=O (stereo not given)	5.33
CC1(C)CC(Nc2ccc(I)cc2)C2=C(O1)C(=O)c1ccccc1C2=O (stereo not given)	5.16
CC1(C)CC(Nc2ccc(Cl)cc2)C2=C(O1)C(=O)c1ccccc1C2=O (stereo not given)	6.01
COc1ccc(NC2CC(C)(C)OC3=C2C(=O)c2ccccc2C3=O)cc1 (stereo not given)	6.72

System: V79
Assay: Cytotoxicity against chinese hamster V79 cells assessed as cell viability after 72 hrs by MTT assay
Type: cell-based
Settings: Cricetulus griseus, V79, 72 h

Structure (SMILES)	pIC50
CC1(C)CC(Nc2cccc([N+](=O)[O-])c2)C2=C(O1)C(=O)c1ccccc1C2=O (stereo not given)	5.41
CC1(C)CC(Nc2ccc(Br)cc2)C2=C(O1)C(=O)c1ccccc1C2=O (stereo not given)	5.59
CC1(C)CC(Nc2ccc(I)cc2)C2=C(O1)C(=O)c1ccccc1C2=O (stereo not given)	5.59
CC1(C)CC(Nc2ccc(Cl)cc2)C2=C(O1)C(=O)c1ccccc1C2=O (stereo not given)	5.82
COc1ccc(NC2CC(C)(C)OC3=C2C(=O)c2ccccc2C3=O)cc1 (stereo not given)	6.02
COc1cccc2c1C(=O)c1c(O)c3c(c(O)c1C2=O)C[C@@](O)(C(=O)CO)C[C@@H]3O[C@H]1C[C@H](N)[C@H](O)[C@H](C)O1 [DOXORUBICIN]	6.62

System: PC-3
Assay: Cytotoxicity against human PC3 cells assessed as cell viability after 72 hrs by MTT assay
Type: functional, cell-based
Settings: PC-3, 72 h

Structure (SMILES)	pIC50
CC1(C)CC(Nc2ccc(Br)cc2)C2=C(O1)C(=O)c1ccccc1C2=O (stereo not given)	5.27
CC1(C)CC(Nc2ccc(I)cc2)C2=C(O1)C(=O)c1ccccc1C2=O (stereo not given)	5.04
CC1(C)CC(Nc2ccc(Cl)cc2)C2=C(O1)C(=O)c1ccccc1C2=O (stereo not given)	6.00
COc1ccc(NC2CC(C)(C)OC3=C2C(=O)c2ccccc2C3=O)cc1 (stereo not given)	6.26

System: MCF7
Assay: Cytotoxicity against human MCF7 cells assessed as cell viability after 72 hrs by MTT assay
Type: functional, cell-based
Settings: MCF7, 72 h

Structure (SMILES)	pIC50
CC1(C)CC(Nc2ccc(Br)cc2)C2=C(O1)C(=O)c1ccccc1C2=O (stereo not given)	5.30
CC1(C)CC(Nc2ccc(I)cc2)C2=C(O1)C(=O)c1ccccc1C2=O (stereo not given)	5.12
CC1(C)CC(Nc2ccc(Cl)cc2)C2=C(O1)C(=O)c1ccccc1C2=O (stereo not given)	6.01
COc1ccc(NC2CC(C)(C)OC3=C2C(=O)c2ccccc2C3=O)cc1 (stereo not given)	5.99

System: SF-295
Assay: Cytotoxicity against human SF295 cells assessed as cell viability after 72 hrs by MTT assay
Type: functional, cell-based
Settings: SF-295, 72 h

Structure (SMILES)	pIC50
CC1(C)CC(Nc2cccc([N+](=O)[O-])c2)C2=C(O1)C(=O)c1ccccc1C2=O (stereo not given)	5.82
CC1(C)CC(Nc2ccc(Br)cc2)C2=C(O1)C(=O)c1ccccc1C2=O (stereo not given)	5.20
CC1(C)CC(Nc2ccc(I)cc2)C2=C(O1)C(=O)c1ccccc1C2=O (stereo not given)	5.04
CC1(C)CC(Nc2ccc(Cl)cc2)C2=C(O1)C(=O)c1ccccc1C2=O (stereo not given)	6.15
COc1ccc(NC2CC(C)(C)OC3=C2C(=O)c2ccccc2C3=O)cc1 (stereo not given)	6.13

System: OVCAR-8
Assay: Cytotoxicity against human OVCAR8 cells assessed as cell viability after 72 hrs by MTT assay
Type: functional, cell-based
Settings: OVCAR-8, 72 h

Structure (SMILES)	pIC50
CC1(C)CC(Nc2ccc(Br)cc2)C2=C(O1)C(=O)c1ccccc1C2=O (stereo not given)	5.26
CC1(C)CC(Nc2ccc(I)cc2)C2=C(O1)C(=O)c1ccccc1C2=O (stereo not given)	< 5.00
CC1(C)CC(Nc2ccc(Cl)cc2)C2=C(O1)C(=O)c1ccccc1C2=O (stereo not given)	5.83
COc1ccc(NC2CC(C)(C)OC3=C2C(=O)c2ccccc2C3=O)cc1 (stereo not given)	6.36
COc1cccc2c1C(=O)c1c(O)c3c(c(O)c1C2=O)C[C@@](O)(C(=O)CO)C[C@@H]3O[C@H]1C[C@H](N)[C@H](O)[C@H](C)O1 [DOXORUBICIN]	6.46

System: PBMC
Assay: Cytotoxicity against human PBMC assessed as cell viability after 72 hrs by MTT assay
Type: cell-based
Settings: not given

Structure (SMILES)	pIC50
CC1(C)CC(Nc2cccc([N+](=O)[O-])c2)C2=C(O1)C(=O)c1ccccc1C2=O (stereo not given)	5.32
CC1(C)CC(Nc2ccc(Br)cc2)C2=C(O1)C(=O)c1ccccc1C2=O (stereo not given)	5.54
CC1(C)CC(Nc2ccc(I)cc2)C2=C(O1)C(=O)c1ccccc1C2=O (stereo not given)	5.49
CC1(C)CC(Nc2ccc(Cl)cc2)C2=C(O1)C(=O)c1ccccc1C2=O (stereo not given)	6.28
COc1ccc(NC2CC(C)(C)OC3=C2C(=O)c2ccccc2C3=O)cc1 (stereo not given)	5.75

System: HCT-116
Assay: Cytotoxicity against human HCT116 cells assessed as cell viability after 72 hrs by MTT assay
Type: functional, cell-based
Settings: HCT-116, 72 h

Structure (SMILES)	pIC50
CC1(C)CC(Nc2cccc([N+](=O)[O-])c2)C2=C(O1)C(=O)c1ccccc1C2=O (stereo not given)	5.07
CC1(C)CC(Nc2ccc(Br)cc2)C2=C(O1)C(=O)c1ccccc1C2=O (stereo not given)	5.23
CC1(C)CC(Nc2ccc(I)cc2)C2=C(O1)C(=O)c1ccccc1C2=O (stereo not given)	< 5.00
CC1(C)CC(Nc2ccc(Cl)cc2)C2=C(O1)C(=O)c1ccccc1C2=O (stereo not given)	6.27
COc1ccc(NC2CC(C)(C)OC3=C2C(=O)c2ccccc2C3=O)cc1 (stereo not given)	6.48

System: not listed separately
Assay: Cytotoxicity against human HCT8 cells assessed as cell viability after 72 hrs by MTT assay
Type: functional, cell-based
Settings: HCT-8, 72 h

Structure (SMILES)	pIC50
CC1(C)CC(Nc2cccc([N+](=O)[O-])c2)C2=C(O1)C(=O)c1ccccc1C2=O (stereo not given)	5.19
CC1(C)CC(Nc2ccc(Br)cc2)C2=C(O1)C(=O)c1ccccc1C2=O (stereo not given)	5.27
CC1(C)CC(Nc2ccc(I)cc2)C2=C(O1)C(=O)c1ccccc1C2=O (stereo not given)	< 5.00
CC1(C)CC(Nc2ccc(Cl)cc2)C2=C(O1)C(=O)c1ccccc1C2=O (stereo not given)	6.19
COc1ccc(NC2CC(C)(C)OC3=C2C(=O)c2ccccc2C3=O)cc1 (stereo not given)	6.33
COc1cccc2c1C(=O)c1c(O)c3c(c(O)c1C2=O)C[C@@](O)(C(=O)CO)C[C@@H]3O[C@H]1C[C@H](N)[C@H](O)[C@H](C)O1 [DOXORUBICIN]	6.89

System: L929
Assay: Cytotoxicity against mouse L929 cells assessed as cell viability after 72 hrs by MTT assay
Type: ADME, cell-based
Settings: L929, 72 h

Structure (SMILES)	pIC50
CC1(C)CC(Nc2cccc([N+](=O)[O-])c2)C2=C(O1)C(=O)c1ccccc1C2=O (stereo not given)	5.34
CC1(C)CC(Nc2ccc(Br)cc2)C2=C(O1)C(=O)c1ccccc1C2=O (stereo not given)	5.62
CC1(C)CC(Nc2ccc(I)cc2)C2=C(O1)C(=O)c1ccccc1C2=O (stereo not given)	5.64
CC1(C)CC(Nc2ccc(Cl)cc2)C2=C(O1)C(=O)c1ccccc1C2=O (stereo not given)	5.73
COc1ccc(NC2CC(C)(C)OC3=C2C(=O)c2ccccc2C3=O)cc1 (stereo not given)	6.13

System: DU-145
Assay: Cytotoxicity against human DU145 cells assessed as cell viability after 72 hrs by MTT assay
Type: functional, cell-based
Settings: DU-145, 72 h

Structure (SMILES)	pIC50
CC1(C)CC(Nc2ccc(Br)cc2)C2=C(O1)C(=O)c1ccccc1C2=O (stereo not given)	5.17
CC1(C)CC(Nc2ccc(I)cc2)C2=C(O1)C(=O)c1ccccc1C2=O (stereo not given)	4.97
CC1(C)CC(Nc2ccc(Cl)cc2)C2=C(O1)C(=O)c1ccccc1C2=O (stereo not given)	5.93
COc1ccc(NC2CC(C)(C)OC3=C2C(=O)c2ccccc2C3=O)cc1 (stereo not given)	6.06
COc1cccc2c1C(=O)c1c(O)c3c(c(O)c1C2=O)C[C@@](O)(C(=O)CO)C[C@@H]3O[C@H]1C[C@H](N)[C@H](O)[C@H](C)O1 [DOXORUBICIN]	6.28
